The numbers were not newly measured in PMC12032770 (Journal of Experimental & Clinical Cancer Research : CR, 2025), which cites them from elsewhere.

The data set relates to αvβ3 and αvβ5 integrin receptors. The note with it: at low doses. The source says: The αvβ3 and αvβ5 integrin receptors are strongly overexpressed on proangiogenic endothelial cells, including those that form tumor-associated blood vessels in GBM, and inhibitors targeting these integrins, such as the cyclic peptide cilengitide (CIL), act as anti-angiogenic agents.

Turning to cilengitide, the “effect on tumor vasculature” value is on record as “vascular normalization”.
